Experimental data: US20260152484A1, “HETEROCYCLIC COMPOUNDS AS TRIGGERING RECEPTOR EXPRESSED ON MYELOID CELLS 2 AGONISTS” (Vigil Neuroscience, Inc., priority 2021, published 2026)

Biological target: T1, human TREM2 (Homo sapiens, UniProt Q9NZC2)
T1 construct: expressed in transfected cells; host or cells: HEK293T (HEK293T-hTREM2 cells)
Test: Cellular phosphorylation of Syk (AlphaLisa) in HEK293T-hTREM2 cells, TREM2 agonist potency
Format: cell-based
Conditions: HEK293 cells expressing human TREM2 and DAP12, pSyk AlphaLisa
Description: In Vitro Measurement of Triggering Receptor Expressed on Myeloid Cells 2 Activity Using Cellular Phosphorylation of Spleen Tyrosine Kinase (“Syk”) Assays
Measurement of TREM2 agonist potency was done using a HEK cell line expressing human TREM2 and DAP12 (HEK293T-hTREM2 cells). Binding of small molecules to, and activation of, TREM2 increases the phosphorylation of Syk. The resultant levels of Syk phosphorylation are measured using a commercial AlphaLisa reagent kit. To perform the assay, HEK-hTREM2 cells were plated at 14,000 cells per well in a 384 well plate, in 25 μL of complete growth media and incubated at 37° C., 5% CO2 for 20-24 hours.
Prior to the assay, test compounds were diluted in the 384 well plates in assay buffer and allowed to equilibrate for 30 minutes. Growth media was removed from cell plates by inversion on blotting paper, and 25 μL of test articles in assay buffer was added to cells. Cells were incubated for 45 minutes at room temperature. After 45 minutes, assay buffer was removed and 10 μL of lysis buffer was added. Plates were shaken for 20 minutes at 350 RPM at room temperature. After complete lysis, AlphaLisa reagents were added to the lysate, and fluourescence intensity was measured using a Perkin Elmer Envision plate reader. Intensities were used to generate a standard curve, and % activation was calculated. Curve fitting was performed using Prism v9 software, log(agonist) vs response—variable slope (four parameters), and EC50s were calculated from the curve fit.
The results presented in Table D have been generated with the in vitro assay described above. This assay may be used to test any of the compounds described herein to assess and characterize a compound's ability to act as an agonist of TREM2.

T1 sequence (Q9NZC2 19-230): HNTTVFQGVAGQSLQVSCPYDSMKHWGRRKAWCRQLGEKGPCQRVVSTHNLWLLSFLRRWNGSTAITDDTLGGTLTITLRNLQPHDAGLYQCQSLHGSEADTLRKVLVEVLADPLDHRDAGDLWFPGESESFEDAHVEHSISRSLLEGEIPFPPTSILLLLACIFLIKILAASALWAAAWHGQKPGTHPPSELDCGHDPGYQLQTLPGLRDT
T1 sequence (O43914 22-113 partner): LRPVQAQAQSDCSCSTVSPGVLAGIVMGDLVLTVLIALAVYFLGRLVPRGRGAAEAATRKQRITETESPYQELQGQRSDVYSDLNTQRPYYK

EC50 (Table D-2) | EC50 (Table D) | Compound
0.5 to 3 µM | – | Cc1cc2c(-c3ccc(Cl)cc3)nn(-c3ccnc(NC4CCOC4)c3)c(=O)c2nc1C (racemic) [I-113, 5-(4-chlorophenyl)-2,3-dimethyl-7-(2-((tetrahydrofuran-3-yl)amino)pyridin-4-yl)pyrido[2,3-d]pyridazin-8 (7H)-one]
0.5 to 3 µM | – | Cc1cc2c(-c3ccc(Cl)cc3)nn(-c3ccnc(OC4CNC4)c3)c(=O)c2nc1C [I-94, 7-[2-(azetidin-3-yloxy)-4-pyridyl]-5-(4-chlorophenyl)-2,3-dimethyl-pyrido[2,3-d]pyridazin-8-one; 2,2,2-trifluoroacetic acid]
0.5 to 3 µM | – | Cc1cc2c(-c3ccc(Cl)c(Cl)c3)nn(-c3ccnc(C4COC4)c3)c(=O)c2cc1C [I-107, 4-(3,4-dichlorophenyl)-6,7-dimethyl-2-[2-(oxetan-3-yl)-4-pyridyl]phthalazin-1-one]
0.5 to 3 µM | – | COc1ccc(-c2nn(-c3ccnc(C4COC4)c3)c(=O)c3cc(C)c(C)cc23)cc1 [I-108, 4-(4-methoxyphenyl)-6,7-dimethyl-2-[2-(oxetan-3-yl)-4-pyridyl]phthalazin-1-one]
0.5 to 3 µM | – | Cc1cc2c(-c3ccc(Cl)cc3)nn(-c3ccnc(C4CC(OCc5ccccc5)C4)c3)c(=O)c2cc1C (centres unmarked) [I-109, 2-(2-(3-(benzyloxy)cyclobutyl)pyridin-4-yl)-4-(4-chlorophenyl)-6,7-dimethylphthalazin-1 (2H)-one]
0.5 to 3 µM | – | Cc1cc2c(-c3ccc(Cl)cc3F)nn(-c3ccnc(C4COC4)c3)c(=O)c2cc1C [I-111, 4-(4-chloro-2-fluoro-phenyl)-6,7-dimethyl-2-[2-(oxetan-3-yl)-4-pyridyl]phthalazin-1-one]
3 to 100 µM | – | Cc1cc2c(-c3ccc(Cl)cc3)nn(-c3ccnc(C4COC4)c3)c(=O)c2nc1C [I-112, 5-(4-chlorophenyl)-2,3-dimethyl-7-[2-(oxetan-3-yl)-4-pyridyl]pyrido [2,3-d]pyridazin-8-one]
0.5 to 3 µM | – | Cc1cc2c(-c3ccc(Cl)cc3)nn(-c3ccnc(NC4COC4)c3)c(=O)c2nc1C [I-116, 5-(4-chlorophenyl)-2,3-dimethyl-7-(2-(oxetan-3-ylamino)pyridin-4-yl)pyrido[2,3-d]pyridazin-8 (7H)-one]
0.5 to 3 µM | – | Cc1cc2c(-c3ccc(Cl)cc3)nn(-c3ccnc(NC4CC(F)(F)C4)c3)c(=O)c2nc1C [I-117, 5-(4-chlorophenyl)-7-(2-((3,3-difluorocyclobutyl)amino)pyridin-4-yl)-2,3-dimethylpyrido[2,3-d]pyridazin-8 (7H)-one]
0.5 to 3 µM | – | Cc1cc2c(-c3ccc(Cl)cc3)nn(-c3ccc(NC4COC4)nc3)c(=O)c2nc1C [I-118, 5-(4-chlorophenyl)-2,3-dimethyl-7-[6-(oxetan-3-ylamino)-3-pyridyl]pyrido [2,3-d]pyridazin-8-one; formic acid]
0.5 to 3 µM | – | Cc1cc2c(-c3ccc(Cl)cc3)nn(-c3ccc(N(C)C4COC4)nc3)c(=O)c2nc1C [I-119, 5-(4-chlorophenyl)-2,3-dimethyl-7-[6-[methyl(oxetan-3-yl)amino]-3-pyridyl]pyrido[2,3-d]pyridazin-8-one; formic acid]
0.05 to 0.5 µM | – | Cc1cc2c(-c3ccc(Cl)cc3)nn(-c3ccnc(Nc4cnn(C5CC5)c4)c3)c(=O)c2nc1C [I-120, 5-(4-chlorophenyl)-7-(2-((1-cyclopropyl-1H-pyrazol-4-yl)amino)pyridin-4-yl)-2,3-dimethylpyrido[2,3-d]pyridazin-8 (7H)-one]
3 to 100 µM | – | Cc1cc2c(-c3ccc(F)cc3)nn(-c3ccc(OC(F)(F)F)cc3)c(=O)c2nc1C [I-121, 5-(4-fluorophenyl)-2,3-dimethyl-7-(4-(trifluoromethoxy)phenyl)pyrido[2,3-d]pyridazin-8 (7H)-one]
0.5 to 3 µM | – | Cc1cc2c(-c3ccc(Cl)cc3)cn(-c3ccc(OC(F)(F)F)cc3)c(=O)c2nc1C [I-122, 5-(4-chlorophenyl)-2,3-dimethyl-7-(4-(trifluoromethoxy)phenyl)-1,7-naphthyridin-8 (7H)-one]
0.5 to 3 µM | – | Cc1nc2c(-c3ccc(C(F)(F)F)cc3F)cn([C@H]3CCO[C@@H](c4cnn(C5CC5)c4)C3)c(=O)c2nc1C [I-123, 6-[(2R,4S)-2-(1-cyclopropyl-1H-pyrazol-4-yl)tetrahydro-2H-pyran-4-yl]-8-[2-fluoro-4-(trifluoromethyl)phenyl]-2,3-dimethylpyrido[3,4-b]pyrazin-5 (6H)-one]
– | 0.5 to 3 µM | Cc1cc2c(-c3ccc(Cl)cc3)nn(-c3ccc(OC(F)(F)F)cc3)c(=O)c2nc1C [compound 1, 5-(4-chlorophenyl)-2,3-dimethyl-7-(4-(trifluoromethoxy)phenyl)pyrido[2,3-d]pyridazin-8 (7H)-one]

EC50 (Table D-2) | EC50 (Table D) | Compound
– | 0.5 to 3 µM | Cc1cc2c(-c3ccc(Cl)cc3)nn(-c3ccc(OC(F)(F)F)cc3)c(=O)c2cc1C [compound 10, 4-(4-chlorophenyl)-6,7-dimethyl-2-(4-(trifluoromethoxy)phenyl)phthalazin-1(2H)-one]
– | 0.5 to 3 µM | CC(C)n1ccc(-n2nc(-c3ccc(Cl)cc3)c3cc(Cl)c(Cl)cc3c2=O)cc1=O [compound 11, 6,7-dichloro-4-(4-chlorophenyl)-2-(1-isopropyl-2-oxo-1,2-dihydropyridin-4-yl)phthalazin-1(2H)-one]
– | 0.5 to 3 µM | CC(C)Oc1cc(-n2nc(-c3ccc(Cl)cc3)c3cc(Cl)c(Cl)cc3c2=O)ccn1 [compound 12, 6,7-dichloro-4-(4-chlorophenyl)-2-(2-isopropoxypyridin-4-yl)phthalazin-1(2H)-one]
– | 3 to 100 µM | CC(=O)N1CCC(n2nc(-c3ccc(Cl)cc3)c3cc(Cl)c(Cl)cc3c2=O)CC1 [compound 13, 2-(1-acetylpiperidin-4-yl)-6,7-dichloro-4-(4-chlorophenyl)phthalazin-1(2H)-one]
– | 0.5 to 3 µM | Cc1cc2c(-c3ccc(Cl)cc3)nn(-c3ccnc(C4COC4)c3)c(=O)c2cc1C [compound 14, 4-(4-chlorophenyl)-6,7-dimethyl-2-(2-(oxetan-3-yl)pyridin-4-yl)phthalazin-1(2H)-one]
– | 0.5 to 3 µM | Cc1cc2c(-c3ccc(Cl)cc3)nn(-c3ccnc(C4CCC4)c3)c(=O)c2cc1C [compound 15, 4-(4-chlorophenyl)-2-(2-cyclobutylpyridin-4-yl)-6,7-dimethylphthalazin-1(2H)-one]
– | 0.5 to 3 µM | Cc1cc2c(-c3ccc(Cl)cc3)nn(-c3ccnc(C4CNC4)c3)c(=O)c2cc1C [compound 16, 2-(2-(azetidin-3-yl)pyridin-4-yl)-4-(4-chlorophenyl)-6,7-dimethylphthalazin-1(2H)-one]
– | 3 to 100 µM | Cc1cc2c(-c3ccc(Cl)cc3)nn(-c3ccc(C4CC4)nc3)c(=O)c2cc1C [compound 17, 4-(4-chlorophenyl)-2-(6-cyclopropylpyridin-3-yl)-6,7-dimethylphthalazin-1(2H)-one]
– | 0.5 to 3 µM | Cc1cc2c(-c3ccc(Cl)cc3)nn(-c3ccnc(N4CCN(C(=O)OC(C)(C)C)CC4)c3)c(=O)c2cc1C [compound 18, tert-butyl 4-(4-(4-(4-chlorophenyl)-6,7-dimethyl-1-oxophthalazin-2(1H)-yl)pyridin-2-yl)piperazine-1-carboxylate]
– | 3 to 100 µM | Cc1cc2c(-c3ccc(Cl)cc3)nn(-c3ccc4c(c3)OCO4)c(=O)c2cc1C [compound 19, 2-(benzo[d][1,3]dioxol-5-yl)-4-(4-chlorophenyl)-6,7-dimethylphthalazin-1(2H)-one]
– | 0.5 to 3 µM | Cc1cc2c(-c3ccc(Cl)cc3)nn(-c3ccnc(OC4CN(C(=O)OC(C)(C)C)C4)c3)c(=O)c2cc1C [compound 20, tert-butyl 3-((4-(4-(4-chlorophenyl)-6,7-dimethyl-1-oxophthalazin-2(1H)-yl)pyridin-2-yl)oxy)azetidine-1-carboxylate]
– | 3 to 100 µM | CN1CCC(n2nc(-c3ccc(Cl)cc3)c3cc(Cl)c(Cl)cc3c2=O)CC1=O (centres unmarked) [compound 21, 6,7-dichloro-4-(4-chlorophenyl)-2-(1-methyl-2-oxopiperidin-4-yl)phthalazin-1(2H)-one]
– | 0.5 to 3 µM | Cc1cc2c(-c3ccc(Cl)cc3)nn(-c3ccnc(C4CCN(C(=O)OC(C)(C)C)CC4)c3)c(=O)c2cc1C [compound 22, tert-butyl 4-(4-(4-(4-chlorophenyl)-6,7-dimethyl-1-oxophthalazin-2(1H)-yl)pyridin-2-yl)piperidine-1-carboxylate]
– | 0.5 to 3 µM | Cc1ccc2c(-c3ccc(Cl)cc3)nn(-c3ccc(OC(F)(F)F)cc3)c(=O)c2n1 [compound 23, 5-(4-chlorophenyl)-2-methyl-7-(4-(trifluoromethoxy)phenyl)pyrido[2,3-d]pyridazin-8(7H)-one]
– | 3 to 100 µM | Cc1nc2c(=O)n(CC(=O)c3ccc(Cl)cc3)nc(-c3ccc(Cl)cc3)c2s1 [compound 24, 7-(4-chlorophenyl)-5-(2-(4-chlorophenyl)-2-oxoethyl)-2-methylthiazolo[4,5-d]pyridazin-4(5H)-one]
– | 3 to 100 µM | CNC(Cn1nc(-c2ccc(Cl)cc2)c2sc(C)nc2c1=O)c1ccc(Cl)cc1 (centres unmarked) [compound 25, 7-(4-chlorophenyl)-5-(2-(4-chlorophenyl)-2-(methylamino)ethyl)-2-methylthiazolo[4,5-d]pyridazin-4(5H)-one]
